Structures can show the parent of a compound that is named as a salt.
molecular target: hCereblon(M1-L442)_hDDB1(M1-H1140) (Homo sapiens (Human), UniProt Q96SW2); experiment: Fluorescence direct binding protocol (tryptophan fluorescence titration); settings: fluorescence titration at 20° C., excited at 280 nm, recorded at 340 nm; protein 5.0 E−8 M; assay buffer 50 mM Hepes 7.4 200 mM NaCl; read-out: Fluorescence h-Cereblon_DDB1 Mean Kd_EQ
Experimental: Fluorescence Direct Binding Protocol
Determination of the affinities of compounds to protein containing one or more tryptophan is measurable by monitoring the fluorescence emission in direct mode. The measurements depending on the protein available amounts are performed either manually in a cuvette on ISS-PC1 photon counting spectrofluorometer or automatically in well plates on a fluorescence plate reader device. Fluorescence titrations are performed at 20° C. in the chosen binding assay buffer by using a defined constant protein concentration against ligand concentration variations. Small aliquots of known ligand concentration solubilized in DMSO were added and the fluorescence, excited at 280 nm, was recorded at 340 nm. The fluorescence intensity was corrected for protein dilution and for the filter effect (Birdsall et al.^69). The corrected fluorescence intensity was plotted against the ligand concentration and fitted using a four-parameter sigmoidal function, from which the equilibrium dissociation constant Kd was computed using the law of mass action assuming a 1:1 protein-ligand complex (Eftink, 1997^70).
Process • 1) Optimization of measurement parameters to minimize protein consumption and to minimize the dilution effect and the DMSO content • 2) Titration measurements of the protein against ligand by at least 12 titration steps to obtain a good s-curve fit • 3) Repeat the same titration measurements with the ligand alone to enable correction • 4) Check the stability of the protein once by titration against DMSO alone • 5) Determination of the molar extinction coefficients of the ligand at 280 and 340 nm with help of an UV-spectrophotometer • 6) Use Excel template for the correction of the measured raw data • 7) Use GraphPad Prism software for the quadratic binding fit and the KD evaluation.

Sequence of hCereblon(M1-L442)_hDDB1(M1-H1140) (Q96SW2 whole entry): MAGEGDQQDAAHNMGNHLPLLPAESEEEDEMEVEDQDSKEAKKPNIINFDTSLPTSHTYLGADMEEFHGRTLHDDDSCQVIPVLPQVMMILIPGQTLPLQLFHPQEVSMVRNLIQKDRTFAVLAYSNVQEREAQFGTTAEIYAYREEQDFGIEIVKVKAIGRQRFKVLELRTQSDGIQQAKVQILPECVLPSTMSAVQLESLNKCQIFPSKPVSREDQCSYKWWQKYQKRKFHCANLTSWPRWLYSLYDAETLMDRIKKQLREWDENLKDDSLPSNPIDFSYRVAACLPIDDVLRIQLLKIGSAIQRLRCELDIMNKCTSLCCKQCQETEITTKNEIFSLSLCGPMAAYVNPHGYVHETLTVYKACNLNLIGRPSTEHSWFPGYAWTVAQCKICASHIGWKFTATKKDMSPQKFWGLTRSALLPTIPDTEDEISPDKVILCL
Sequence of hCereblon(M1-L442)_hDDB1(M1-H1140) (Q16531 whole entry partner): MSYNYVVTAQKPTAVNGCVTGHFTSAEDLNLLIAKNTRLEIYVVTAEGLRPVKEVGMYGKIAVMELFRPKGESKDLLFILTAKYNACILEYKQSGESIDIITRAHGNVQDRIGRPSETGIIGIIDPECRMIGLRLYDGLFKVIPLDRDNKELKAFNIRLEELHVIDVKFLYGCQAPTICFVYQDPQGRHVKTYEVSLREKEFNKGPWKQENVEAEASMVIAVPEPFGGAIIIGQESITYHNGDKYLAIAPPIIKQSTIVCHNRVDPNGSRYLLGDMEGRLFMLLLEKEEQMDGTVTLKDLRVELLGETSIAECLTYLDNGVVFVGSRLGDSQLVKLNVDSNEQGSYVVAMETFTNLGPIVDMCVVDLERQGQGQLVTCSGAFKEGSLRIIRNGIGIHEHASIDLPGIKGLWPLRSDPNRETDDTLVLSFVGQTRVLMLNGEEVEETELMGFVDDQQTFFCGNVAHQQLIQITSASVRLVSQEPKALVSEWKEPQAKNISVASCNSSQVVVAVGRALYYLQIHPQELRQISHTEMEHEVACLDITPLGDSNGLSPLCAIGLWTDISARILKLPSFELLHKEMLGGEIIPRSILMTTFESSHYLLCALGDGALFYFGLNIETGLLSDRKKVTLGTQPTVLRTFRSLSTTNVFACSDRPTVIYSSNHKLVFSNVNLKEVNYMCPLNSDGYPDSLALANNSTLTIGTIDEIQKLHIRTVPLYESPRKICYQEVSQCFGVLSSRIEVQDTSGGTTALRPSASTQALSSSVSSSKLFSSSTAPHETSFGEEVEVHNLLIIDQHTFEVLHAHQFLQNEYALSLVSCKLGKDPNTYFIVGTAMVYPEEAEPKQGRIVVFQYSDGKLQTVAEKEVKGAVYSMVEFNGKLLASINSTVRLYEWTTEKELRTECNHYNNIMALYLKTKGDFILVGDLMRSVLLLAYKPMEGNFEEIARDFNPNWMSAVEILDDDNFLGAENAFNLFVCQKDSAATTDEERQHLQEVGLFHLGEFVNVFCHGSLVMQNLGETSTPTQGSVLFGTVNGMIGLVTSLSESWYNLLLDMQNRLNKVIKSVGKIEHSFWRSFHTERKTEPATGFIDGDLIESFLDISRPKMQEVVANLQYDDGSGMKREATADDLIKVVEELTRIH

| Kd [nM] | SMILES |
| --- | --- |
| 10 | CNC(=O)c1cccc2c1CCN2C(=O)Nc1ccc2[nH]c(=O)[nH]c2c1 [Example 93, N4-Methyl-N1-(2-oxo-2,3-dihydro-1H-benzo[d]imidazol-5-yl)indoline-1,4-dicarboxamide] |
| 22 | CNC(=O)c1ccc(Oc2ccc3[nH]c(=O)[nH]c3c2)cc1 [Example 156, N-Methyl-4-((2-oxo-2,3-dihydro-1H-benzo[d]imidazol-5-yl)oxy)benzamide] |
| < 1 | CC(=O)N1CCN(c2ccc3[nH]c(=O)[nH]c3c2)CC1 [Example 62, 5-(4-Acetylpiperazin-1-yl)-1,3-dihydro-2H-benzo[d]imidazol-2-one] |
| 53 | CC(=O)Nc1ccc2c(c1)CCN2c1ccc2[nH]c(=O)[nH]c2c1 [Example 141, N-(1-(2-Oxo-2,3-dihydro-1H-benzo[d]imidazol-5-yl)indolin-5-yl)acetamide] |
| 23 | Cn1c(=O)n(C)c2cc(Nc3ccccc3[N+](=O)[O-])ccc21 [Example 49, 1,3-Dimethyl-5-((2-nitrophenyl)amino)-1,3-dihydro-2H-benzo[d]imidazol-2-one] |
| 25 | COC(=O)c1cccc2c1CCN2C(=O)c1ccc2[nH]c(=O)[nH]c2c1 [Example 54, Methyl 1-(2-oxo-2,3-dihydro-1H-benzo[d]imidazole-5-carbonyl)indoline-4-carboxylate] |
| 3 | CC(=O)Nc1ccc2c(c1)CCN2Cc1ccc2[nH]c(=O)[nH]c2c1 [Example 150, N-(1-((2-Oxo-2,3-dihydro-1H-benzo[d]imidazol-5-yl)methyl)indolin-5-yl)acetamide] |
| 338 | CNC(=O)c1ccccc1NC(=O)c1ccc2[nH]c(=O)[nH]c2c1 [Example 147, N-(2-(Methylcarbamoyl)phenyl)-2-oxo-2,3-dihydro-1H-benzo[d]imidazole-5-carboxamide] |
| 65 | Nc1ccc2c(c1)CCN2C(=O)Nc1ccc2[nH]c(=O)[nH]c2c1 [Example 121, 5-Amino-N-(2-oxo-2,3-dihydro-1H-benzo[d]imidazol-5-yl)indoline-1-carboxamide] |
| 16 | COC(=O)c1ccc(Nc2ccc3[nH]c(=O)[nH]c3c2)nc1 [Example 153, Methyl 6-((2-oxo-2,3-dihydro-1H-benzo[d]imidazol-5-yl)amino)nicotinate] |
| 159 | CC(C)(C)OC(=O)N1CCc2c(C(=O)Nc3ccc4[nH]c(=O)[nH]c4c3)cccc21 [Example 143, tert-Butyl 4-((2-oxo-2,3-dihydro-1H-benzo[d]imidazol-5-yl)carbamoyl)indoline-1-carboxylate] |
| 168 | Nc1ccc2c(c1)CCN2c1ccc2[nH]c(=O)[nH]c2c1 [Example 140, 5-(5-Aminoindolin-1-yl)-1,3-dihydro-2H-benzo[d]imidazol-2-one hydrochloride] |
| 22 | CNC(=O)c1ccc2c(c1)nc(Cc1ccccc1OC)n2-c1ccc2[nH]c(=O)[nH]c2c1 [Example 45, 2-(2-Methoxybenzyl)-N-methyl-2′-oxo-2′,3′-dihydro-1′H-[1,5′-bibenzo[d]imidazole]-5-carboxamide] |
| 11 | Cn1c(=O)n(C)c2cc(Nc3ccccc3N)ccc21 [Example 50, 5-((2-Aminophenyl)amino)-1,3-dimethyl-1,3-dihydro-2H-benzo[d]imidazol-2-one] |
| 10 | CNC(=O)c1ccc2c(c1)nc(C(C)(C)C)n2-c1ccc2[nH]c(=O)[nH]c2c1 [Example 46, 2-(tert-Butyl)-N-methyl-2′-oxo-2′,3′-dihydro-1′H-[1,5′-bibenzo[d]imidazole]-5-carboxamide] |
| 1 | Nc1ccc(CC(=O)Nc2ccc3[nH]c(=O)[nH]c3c2)cc1 [Example 70, 2-(4-Aminophenyl)-N-(2-oxo-2,3-dihydro-1H-benzo[d]imidazol-5-yl)acetamide] |
| 7 | CNC(=O)c1ccc2c(c1)nc(C(F)(F)F)n2-c1ccc2[nH]c(=O)[nH]c2c1 [Example 13, N-Methyl-2′-oxo-2-(trifluoromethyl)-2′,3′-dihydro-1′H-[1,5′-bibenzo[d]imidazole]-5-carboxamide] |
| 19 | CC(C)c1nc2ccccc2n1-c1ccc2c(c1)[nH]c(=O)n2C [Example 34, 2-Isopropyl-1′-methyl-1′,3′-dihydro-2′H-[1,5′-bibenzo[d]imidazol]-2′-one] |
| 11 | O=C(Nc1ccc2[nH]c(=O)[nH]c2c1)c1ccccc1 [Example 73, N-(2-Oxo-2,3-dihydro-1H-benzo[d]imidazol-5-yl)benzamide] |
| 35 | O=C(c1nc2ccccc2n1-c1ccc2[nH]c(=O)[nH]c2c1)N1CCCCC1 [Example 103, 5-[2-(Piperidine-1-carbonyl)benzimidazol-1-yl]-1,3-dihydrobenzimidazol-2-one] |

| Kd [nM] | SMILES |
| --- | --- |
| 79 | O=C(Nc1ccc2[nH]c(=O)[nH]c2c1)c1ccccc1-c1ccncc1 [Example 136, N-(2-Oxo-2,3-dihydro-1H-benzo[d]imidazol-5-yl)-2-(pyridin-4-yl)benzamide] |
| 14 | O=c1[nH]c2cc(-c3ccccc3OCc3ccccc3)cnc2[nH]1 [Example 104, 6-(2-(Benzyloxy)phenyl)-1,3-dihydro-2H-imidazo[4,5-b]pyridin-2-one] |
| 14 | CC(=O)Nc1ccc(NC(=O)Nc2ccc3[nH]c(=O)[nH]c3c2)cc1 [Example 101, N-(4-(3-(2-oxo-2,3-dihydro-1H-benzo[d]imidazol-5-yl)ureido)phenyl)acetamide] |
| 5 | Cc1ncc(-c2ccc3[nH]c(=O)[nH]c3c2)s1 [Example 21, 5-(2-Methylthiazol-5-yl)-1H-benzo[d]imidazol-2(3H)-one] |
| 27 | O=c1[nH]c2ccc(-n3c(-c4ccnc5ccccc45)nc4ccccc43)cc2[nH]1 [Example 7, 2-(Quinolin-4-yl)-1′H-[1,5′-bibenzo[d]imidazol]-2′(3′H)-one] |
| 33 | COC(=O)c1ccc2c(c1)CCN2C(=O)Nc1ccc2[nH]c(=O)[nH]c2c1 [Example 92, Methyl 1-((2-oxo-2,3-dihydro-1H-benzo[d]imidazol-5-yl)carbamoyl)indoline-5-carboxylate] |
| 16 | O=C(Nc1ccc2[nH]c(=O)[nH]c2c1)[C@H]1CCCc2ccccc21 [Example 71, (S)—N-(2-Oxo-2,3-dihydro-1H-benzo[d]imidazol-5-yl)-1,2,3,4-tetrahydronaphthalene-1-carboxamide] |
| 8 | CNC(=O)c1ccc2c(c1)nc(C1(c3ccccc3)CC1)n2-c1ccc2[nH]c(=O)[nH]c2c1 [Example 114, N-Methyl-2′-oxo-2-(1-phenylcyclopropyl)-2′,3′-dihydro-1′H-[1,5′-bibenzo[d]imidazole]-5-carboxamide] |
| < 1 | Cn1c(=O)[nH]c2nc(-c3ccccc3)ccc21 [Example 44, 1-Methyl-5-phenyl-3H-imidazo[4,5-b]pyridin-2-one] |
| 8 | CC(=O)N1CCC(NS(=O)(=O)c2ccc3[nH]c(=O)[nH]c3c2)CC1 [Example 117, N-(1-Acetylpiperidin-4-yl)-2-oxo-2,3-dihydro-1H-benzo[d]imidazole-5-sulfonamide] |
| 77 | O=c1[nH]c2cnc(-c3ccc(F)cc3)cc2[nH]1 [Example 36, 6-(4-Fluoro-phenyl)-1,3-dihydro-imidazo[4,5-c]pyridin-2-one] |
| 3 | COC(=O)c1nc2ccccc2n1-c1ccc2[nH]c(=O)[nH]c2c1 [Example 82, Methyl 1-(2-oxo-1,3-dihydrobenzimidazol-5-yl)benzimidazole-2-carboxylate] |
| 29 | O=C(Nc1ccc2[nH]c(=O)[nH]c2c1)C1CCc2ccccc21 (stereo not shown) [Example 69, N-(2-Oxo-2,3-dihydro-1H-benzo[d]imidazol-5-yl)-2,3-dihydro-1H-indene-1-carboxamide] |
| 82 | O=c1[nH]c2ccc(-c3ccc(F)cc3F)cc2[nH]1 [Example 38, 5-(2,4-Difluoro-phenyl)-1,3-dihydro-benzoimidazol-2-one] |
| 10 | O=c1[nH]c2ccc(-c3cc(F)ccc3F)cc2[nH]1 [Example 37, 5-(2,5-Difluoro-phenyl)-1,3-dihydro-benzoimidazol-2-one] |
| 100 | CCOC(=O)c1ccc(NS(=O)(=O)c2ccc3[nH]c(=O)[nH]c3c2)cc1 [Example 43, Ethyl 4-((2-oxo-2,3-dihydro-1H-benzo[d]imidazole)-5-sulfonamido)benzoate] |
| 9 | CN(C(=O)c1ccc2[nH]c(=O)[nH]c2c1)c1ccccc1 [Example 96, N-Methyl-2-oxo-N-phenyl-2,3-dihydro-1H-benzo[d]imidazole-5-carboxamide] |
| 336 | O=c1[nH]c2ccc(-c3cccc4ncccc34)cc2[nH]1 [Example 42, 5-Quinolin-5-yl-1,3-dihydro-benzoimidazol-2-one] |
| 109 | COc1cccc(-c2ncccc2C(=O)Nc2ccc3[nH]c(=O)[nH]c3c2)c1 [Example 138, 2-(3-Methoxyphenyl)-N-(2-oxo-2,3-dihydro-1H-benzo[d]imidazol-5-yl)nicotinamide] |
| 3 | O=c1[nH]c2ccc(-n3c(C(O)c4ccccc4)nc4ccccc43)cc2[nH]1 (stereo not shown) [Example 85, 5-[2-[Hydroxy(phenyl)methyl]benzimidazol-1-yl]-1,3-dihydrobenzimidazol-2-one] |

Source: US11787802B2, “Dihydrobenzimidazolones for medical treatment” (C4 Therapeutics, Inc., priority 2017, dated 2023)
